Test results taken from US7098232B1, “Treatment and prevention of gastrointestinal disease using antagonists of partial agonists of 5HT1a receptors” (Athpharma Limited, priority 1999, dated 2006).

How the values were obtained:
[1] = target: T1, 5HT1a receptor (Homo sapiens, UniProt P08908); experiment: Buspirone challenge, prolactin release; type: in vivo; details: buspirone 30 mg orally; for Prolactin AUC (mean±SD): blood 0-180 min
T1 construct: Buspirone (30mg) or, matching placebo was administered orally; from tissue; host or cells: living human subjects (central receptors)
T1 sequence (P08908 1-422): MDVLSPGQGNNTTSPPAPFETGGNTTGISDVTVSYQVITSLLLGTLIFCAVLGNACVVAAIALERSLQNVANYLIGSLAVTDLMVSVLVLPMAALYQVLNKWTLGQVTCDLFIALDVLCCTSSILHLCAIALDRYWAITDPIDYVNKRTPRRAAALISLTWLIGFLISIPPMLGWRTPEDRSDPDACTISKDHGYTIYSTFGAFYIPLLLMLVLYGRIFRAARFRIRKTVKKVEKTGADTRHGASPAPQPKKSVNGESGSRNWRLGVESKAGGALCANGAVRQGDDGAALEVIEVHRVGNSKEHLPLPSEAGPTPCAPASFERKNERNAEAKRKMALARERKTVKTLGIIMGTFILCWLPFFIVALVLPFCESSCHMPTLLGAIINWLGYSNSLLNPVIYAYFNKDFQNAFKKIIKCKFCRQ
Description: Studies indicate that a central 5HT1a receptor hypersensitivity may be involved in the pathophysiology of NUD (13,14). The release of prolactin from the anterior pituitary is under dopamine inhibition and under 5HT stimulation, probably at the level of the hypothalamus (15).
A total of 109 subjects, 50 NUD patients (39 female/11 male) and 59 healthy comparison subjects ([…]) gave fully informed consent to take part in the study, which had Ethics Committee approval. […] Buspirone (30mg) or, matching placebo was administered orally at 0900 h (Time 0). Blood was taken at 0, 30, 60, 90, 120 and 180 min.

[2] = tested on: patients suffering from non-ulcerative dyspepsia; experiment: Clinical study of pindolol in non-ulcerative dyspepsia (GSRS scores); type: in vivo, humans; details: 2.5 mg three times daily
Description: The invention is intended for the treatment of mammals, including humans.
Eleven patients suffering from non-ulcerative dyspepsia were recruited to a clinical study and gave informed consent. All were treated with pindolol 2.5 mg three times daily. […] A further patient improved in the second week. Their responses were quantified using a standard rating scale (GSRS scores).

[3] = tested on: gastric emptying; details: intracerebroventricular injection, animal studies; cited from earlier work

For `O=C1CC2(CCCC2)CC(=O)N1CCCCN1CCN(c2ncccn2)CC1` [Buspirone], the “Prolactin AUC (mean±SD)” value ([1]; NUD patients) was 46±35, the “Prolactin levels after challenge” value ([1]; all subjects) was “rose in all subjects” and the “Prolactin AUC (mean±SD)” value ([1]; healthy subjects) was 24±35.
For `CC(C)NCC(O)COc1cccc2[nH]ccc12` (racemic) [pindolol], the “Mean GSRS Score” value ([2]; Week 0 (baseline), average of 11 patients) was 9, the “Mean GSRS Score” value ([2]; Week 1, average of 11 patients) was 4.2 and the “Mean GSRS Score” value ([2]; Week 2, average of 11 patients) was 3.5. The “Mean GSRS Score” value ([2]; Week 3, average of 11 patients) was 2.9, the “Reduction in average symptom severity” value ([2]; in three weeks) was “approximately 68%” and the “Patients with significant improvement in symptoms” value ([2]; within 1 week of commencing treatment) was “Seven of the 11”.
For `CCNC(C)Cc1cccc(C(F)(F)F)c1` (stereo not shown) [fenfluramine], the “Effect on gastric emptying” value [3] is given as “inhibits gastric emptying”.
